Laboratory results published in US6136323A, “Bacterial plasmin receptors as fibrinolytic agents” (University of Florida Research Foundation, Inc., priority 1994, dated 2000).

Tests used:
[1] = molecular target: binding of plasmin to the group A streptococcus 64/14; assay: Inhibition of plasmin binding to bacteria by amino acids; conditions: pH 7.0, 37 C, 15 min, strain 64/14; read-out: concentration giving fifty percent inhibition of binding of plasmin to the bacteria
Experimental: Labeled plasmin (100 μl containing approximately 2×10^4 cpm) was added to 200 μl VBS-gel containing varying concentrations of epsilon-aminocaproic acid (EACA), lysine, or arginine, and incubated at 37 C for 15 min. The pH of each solution was 7.0. One hundred μl of VBS-gel containing 10^7 bacteria (strain 64/14) were then added and the mixture was incubated at 37 C for 15 min. The bacterial suspensions were centrifuged at 1000 g for 7 min and washed twice with 2 ml of VBS-gel containing the same concentration of amino acid present during the incubation period. The percent inhibition of binding was calculated for duplicate experiments by comparison with binding in VBS-gel alone.

[2] = tested on: plasmin prebound to the group A streptococcus; assay: Dissociation of prebound plasmin from bacteria by amino acids; conditions: compared with concentration inhibiting binding by 50%
Experimental: The ability of EACA, lysine, or arginine to dissociate bound plasmin from the bacteria was examined in the following manner. Labeled plasmin was incubated with 10^7 bacteria in VBS-gel containing no amino acid at 37 C for 15 min. The bacteria were pelleted by centrifugation and washed twice with 2 ml on VBS-gel. After determining the radioactivity associated with the bacteria, the pellets were resuspended in solutions of VBS-gel containing varying concentrations of amino acid (pH 7.0) as described above. The mixtures were incubated at 37 C for 15 min and washed twice with VBS-gel containing the appropriate amino acid concentration. The radioactivity associated with the bacteria in duplicate experiments was again measured and the percentage dissociated was calculated.

[3] = tested on: plasmin bound to strain 64/14; assay: Preparative elution of bound labeled plasmin from strain 64/14 with lysine; assay type: binding, group A streptococcus; conditions: 20 mM lysine in VBS-gel, room temperature, 30 min
Experimental: Plasmin which had been bound to and eluted from strain 64/14 by treatment with lysine was also examined in similar binding studies. Eluted plasmin was obtained by incubating 2 ml of stock 10% wet weight/volume bacterial suspension (strain 64/14) with approximately 20 μg of labeled plasmin at room temperature for 45 min. This suspension was centrifuged at 1000 g for 10 min and washed once with 10 ml of VBS-gel, and the radioactivity associated with the bacterial pellet was measured. The pellet was then resuspended in VBS-gel containing 20 mM lysine and incubated at room temperature for 30 min. The suspension was centrifuged and the supernatant recovered. Approximately 90% of the radioactivity originally associated with the bacterial pellet was dissociated by the lysine treatment. The dissociated plasmin in the supernatant was the subjected to gel filtration of a G-25 column to separate lysine from plasmin. Fractions containing plasmin were collected and stored at -20 C.

[4] = tested on: group A streptococcus 64/14; assay: Effect of pH and ionic strength on binding of labeled plasmin(ogen) to bacteria
Experimental: To assess the effect of pH on the bacterium: plasmin (ogen) interaction, 50 μl of labeled plasminogen of plasmin (approximately 2×10^4 cpm) were added to 1.0 ml of VBS containing 0.05% Tween-20 adjusted to the appropriate pH. After 15 min at room temperature, 50 μl of VBS containing approximately 10^7 bacteria (strain 64/14) were added and the mixture was incubated at 37 C for 15 min. The bacterial suspensions were centrifuged at 1000 g for 7 min to separate bacteria from unbound labeled proteins and the pellets were washed twice with 2 ml of VBS at the appropriate pH. The radioactivity associated with the bacterial pellet in duplicate experiments was measured using a Beckman 5500 autogamma counter.
To assess the effect of ionic strength on the bacterium:plasmin (ogen) interaction, similar studies were carried out in solutions containing different concentrations of NaCl with 0.05% Tween-20. The bacterial pellets were washed in the appropriate NaCl concentration to remove unbound labeled proteins.

[5] = tested on: Mr ≈41,000 dalton plasmin binding protein of strain 64/14; assay: Western blot probed with 125I-human plasmin in presence or absence of EACA; set-up: species or system group A streptococcus; conditions: 1.0 mM EACA
Experimental: (§1) Gels intended for Western blotting were equilibrated in 25 mM Tris, 0.2 M glycine pH 8.0 containing 20% v/v methanol (electroblot buffer) for 25 minutes. Protein blotting, from SDS-PAGE gels, was performed using the `Trans-Blot SD Semi-Dry` electrophoretic transfer cell (Bio Rad, Richmond, Calif.). Blots were blocked as described for the dot-blot procedure, and probed for 3-4 hours at room temperature with radiolabeled human plasmin in either the presence or absence of 1.0 mM EACA, to identify functionally active protein bands. In studies of antigenic properties of these proteins, blots were probed with rabbit anti-plasmin receptor antibody or anti-group C streptokinase antibody by incubation with […] IgG per ml of probing solution (approximately a 1:3000 dilution of antisera) for three hours and probed with ^125 I-streptococcal protein G containing 3×10^4 cpm/ml. For probing with mouse monoclonal antibodies specific for epitopes on group C streptokinase, blots were probed with a 1:100 dilution of the monoclonal antibody stock solution for three hours, followed by probing with goat antibody specific for mouse IgG at 1.0 μg/ml, followed by probing with ^125 I-streptococcal protein G containing 3×10^4 cpm/ml. Blots were then washed with 0.01 M EDTA pH 7.3, containing 1.0 M NaCl, 0.25% gelatin, 0.15% Tween 20. […]

[6] = tested on: Mr 48,000 plasminogen activator protein from strain 64/14; assay: as above; assay type: binding, group A streptococcus; conditions: addition of EACA (1.0 mM)
Experimental: as §1

group C streptokinase = assay: as above; assay type: binding, group C streptococci; conditions: addition of EACA (1.0 mM)
Experimental: as §1

plasminogen = plasminogen (Homo sapiens, UniProt P00747); assay: Plasminogen activator activity of separated proteins; assay type: biochemical
human plasmin = molecular target: T1, human plasmin (Homo sapiens, UniProt P00747); assay: Western blot probed with 125I-labeled human plasmin (plasmin binding activity); conditions: SDS-PAGE
T1 construct: from tissue
Experimental: PAGE and protein blotting. SDS-polyacrylamide gel electrophoresis (PAGE) was carried out with a 10% (wt/vol) polyacrylamide separating gel and a 4% (wt/vol) polyacrylamide stacking gel according to the method of Laemmli (Laemmli, U.K. [1970] Nature 227:680-685). Gels for Western blotting (immunoblotting) were equilibrated, and separated proteins were transferred by methods described previously (Broder et al. [1991], supra). For studies of plasmin binding, nitrocellulose membranes were blocked for 1 hour at room temperature in NET-gel buffer. The blots were then incubated for 2 hours at room temperature with ^125 I-human plasmin to identify plasmin-binding protein bands (Broder et al., supra). The blots were washed in NET-gel and subjected to autoradiography at -70 C.
Gels intended for Western blotting were equilibrated in 25 mM Tris, 0.2 M glycine pH 8.0 containing 20% v/v methanol (electroblot buffer) for 25 minutes. Protein blotting, from SDS-PAGE gels, was performed using the `Trans-Blot SD Semi-Dry` electrophoretic transfer cell (Bio Rad, Richmond, Calif.). Blots were blocked as described for the dot-blot procedure, and probed for 3-4 hours at room temperature with radiolabeled human plasmin in either the presence or absence of 1.0 mM EACA, to identify functionally active protein bands. […]

[7] = tested on: group A streptococci strain 64/14; assay: Effect of Ca2+ and Mg2+ on binding of radiolabeled plasmin to bacteria; set-up: species or system group A streptococcus; conditions: VBS-gel with 0.00015 M Ca2+ and 0.001 M Mg2+ vs metal free VBS-gel with 0.15 M EDTA
Experimental: Bindings of radiolabeled plasmin to group A streptococci strain 64/14 was studied in the following buffers: (1) VBS-gel containing 0.00015 M Ca^2+ and 0.001 M Mg^2+, or (2) metal free VBS-gel containing 0.15 M ethylenediaminetetraacetic acid (EDTA). In each case 400 μl of buffer was added to 100 μl of VBS-gel containing approximately 10^7 bacteria and 100 μl of VBS-gel containing 3×10^4 cpm of radiolabeled plasmin. After incubation at 37 C for 15 minutes, the mixtures were centrifuged at 1000 g for 7 min to separate bacteria from unbound radiolabel, the pellets were washed twice with 2 ml of the appropriate buffer, and radioactivity associated with the bacterial pellet in duplicate experiments was measured.

Chain of plasminogen (P00747 20-810 limits assumed): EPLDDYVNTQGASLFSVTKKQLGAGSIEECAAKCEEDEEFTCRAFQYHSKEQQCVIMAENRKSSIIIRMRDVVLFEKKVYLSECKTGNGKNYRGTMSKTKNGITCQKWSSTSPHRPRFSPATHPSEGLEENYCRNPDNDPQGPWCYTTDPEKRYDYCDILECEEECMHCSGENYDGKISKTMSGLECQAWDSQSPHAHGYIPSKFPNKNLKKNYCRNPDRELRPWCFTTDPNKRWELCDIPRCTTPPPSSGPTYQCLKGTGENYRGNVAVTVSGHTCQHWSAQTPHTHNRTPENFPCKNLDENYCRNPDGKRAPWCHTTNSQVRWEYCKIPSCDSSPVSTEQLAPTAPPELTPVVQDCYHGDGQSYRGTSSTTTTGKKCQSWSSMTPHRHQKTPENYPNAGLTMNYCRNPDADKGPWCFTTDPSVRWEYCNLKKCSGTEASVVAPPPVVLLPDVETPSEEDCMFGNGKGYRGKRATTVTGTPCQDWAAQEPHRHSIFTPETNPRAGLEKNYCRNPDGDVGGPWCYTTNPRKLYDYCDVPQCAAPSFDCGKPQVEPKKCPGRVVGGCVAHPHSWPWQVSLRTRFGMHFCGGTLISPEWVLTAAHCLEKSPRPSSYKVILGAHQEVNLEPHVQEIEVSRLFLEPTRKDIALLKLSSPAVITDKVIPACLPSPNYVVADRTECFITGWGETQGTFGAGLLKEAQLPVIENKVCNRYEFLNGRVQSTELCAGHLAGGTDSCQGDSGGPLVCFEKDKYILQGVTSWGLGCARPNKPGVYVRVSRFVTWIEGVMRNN

Molecule: NCCCC[C@H](N)C(=O)O [lysine]
- IC50 [1]: 2 mM
- concentration of amino acid required to elute 50% of the bound plasmin [2]: approximately equivalent
- radioactivity originally associated with the bacterial pellet dissociated [3]: Approximately 90%

Molecule: plasminogen
- fraction bound to bacteria ([4]; 0.1 to 0.4 M NaCl): less than 10%
- direct binding of offered counts to the bacteria ([4]; entire pH range tested (pH 5-9)): less than 10%
- binding to the bacteria at low ionic strength ([4]; ionic strength below 0.075 M NaCl): significant binding

Molecule: N=C(N)NCCC[C@H](N)C(=O)O [arginine]
- IC50 [1]: 25 mM
- concentration of amino acid required to elute 50% of the bound plasmin [2]: approximately equivalent

Molecule: NCCCCCC(=O)O [EACA, epsilon-aminocaproic acid]
- IC50 [1]: 0.15 mM
- concentration of amino acid required to elute 50% of the bound plasmin [2]: approximately equivalent
- effect on binding of 125I-labeled human plasmin to the Mr ≈41,000 dalton protein in concentrated culture supernatant of strain 64/14 [5]: inhibited
- effect on plasmin binding activity of Mr ≈41,000 dalton band in the mutanolysin extract of strain 64/14 [5]: reduced significantly
- effect on binding of plasmin to the Mr 48,000 plasminogen activator protein from strain 64/14 [6]: no effect
- effect on binding of plasmin to the reference group C streptokinase molecule (group C streptokinase): no effect

B1: plasmin receptor: Mr ≈41,000 dalton plasmin binding protein extracted with mutanolysin from group A streptococcal strain 64/14 (protein)
chain: MVVKVGINGFGRIGRLAFRRIQNIEGVEVTRINDLTDPNMLAHLLKYDTTQGRFDGTVEVKEGGFEVNGNFIKVSAERDPENIDWATDGVEIVLEATGFFAKKEAAEKHLHANGAKKVVITAPGGNDVKTVVFNTNHDILDGTETVISGASCTTNCLAPMAKALHDAFGIQKGLMTTIHAYTGDQMILDGPHRGGDLRRARAGAANIVPNSTGAAKAIGLVIPELNGKLDGAAQRVPVPTGSVTELVVTLDKNVSVDEINSAMKAASNDSFGYTEDPIVSSDIVGVSYGSLFDATQTKVMEVDGSQLVKVVSWYDNEMSYTAQLVRTLEYFAKIAK
- plasminogen activating potential (plasminogen; affinity purified protein): lacked any plasminogen activating potential
- plasminogen activator activity (plasminogen; extracted (mutanolysin) preparation from strain 64/14): no plasminogen activator activity
- binding of 125I-labeled human plasmin on blot (human plasmin): capable of binding to human plasmin
- binding of 125I-labeled human plasmin on blot (human plasmin; listed as Mr ≈41,000 dalton protein): retained fractional plasmin binding activity

B2: plasmin: Human plasmin generated from radiolabeled plasminogen by incubation with urokinase (protein, UniProt P00747 20-580; P00747 581-810, looked up)
Plasmin heavy chain A: EPLDDYVNTQGASLFSVTKKQLGAGSIEECAAKCEEDEEFTCRAFQYHSKEQQCVIMAENRKSSIIIRMRDVVLFEKKVYLSECKTGNGKNYRGTMSKTKNGITCQKWSSTSPHRPRFSPATHPSEGLEENYCRNPDNDPQGPWCYTTDPEKRYDYCDILECEEECMHCSGENYDGKISKTMSGLECQAWDSQSPHAHGYIPSKFPNKNLKKNYCRNPDRELRPWCFTTDPNKRWELCDIPRCTTPPPSSGPTYQCLKGTGENYRGNVAVTVSGHTCQHWSAQTPHTHNRTPENFPCKNLDENYCRNPDGKRAPWCHTTNSQVRWEYCKIPSCDSSPVSTEQLAPTAPPELTPVVQDCYHGDGQSYRGTSSTTTTGKKCQSWSSMTPHRHQKTPENYPNAGLTMNYCRNPDADKGPWCFTTDPSVRWEYCNLKKCSGTEASVVAPPPVVLLPDVETPSEEDCMFGNGKGYRGKRATTVTGTPCQDWAAQEPHRHSIFTPETNPRAGLEKNYCRNPDGDVGGPWCYTTNPRKLYDYCDVPQCAAPSFDCGKPQVEPKKCPGR
Plasmin light chain B: VVGGCVAHPHSWPWQVSLRTRFGMHFCGGTLISPEWVLTAAHCLEKSPRPSSYKVILGAHQEVNLEPHVQEIEVSRLFLEPTRKDIALLKLSSPAVITDKVIPACLPSPNYVVADRTECFITGWGETQGTFGAGLLKEAQLPVIENKVCNRYEFLNGRVQSTELCAGHLAGGTDSCQGDSGGPLVCFEKDKYILQGVTSWGLGCARPNKPGVYVRVSRFVTWIEGVMRNN
modifications: Plasmin radiolabeled
notes: Human plasmin generated from radiolabeled plasminogen by incubation with urokinase
- counts offered being bound by the group A streptococcus 64/14 ([4]; maximal binding, between pH 5 and 8, about 10^7 bacteria, 37 C, 15 min): approximately 60%
- amount bound by the bacteria, effect of divalent cations [7]: the same in the presence or absence of divalent cations
